This is an account of results in ChEMBL document CHEMBL1156829 (Proc Natl Acad Sci U S A, 2008).

Usually CC50 stands for the concentration that lowers cell viability or growth by half. Lower therefore signals harm at low concentration. By EC50 is commonly meant the midpoint of the concentration-response curve.

Series [1] is described as follows: NOVARTIS: Cytotoxicity against human hepatocellular carcinoma cell line (Huh7). Format: toxicity, cell-based, Huh-7. The note with it: Huh7 cells (hepatocellular carcinoma cell line).
For series [2], the system named is Plasmodium falciparum. Nature of the series: NOVARTIS: Inhibition of Plasmodium falciparum W2 (drug-resistant) proliferation in erythrocyte-based infection assay. The conditions noted are these: Plasmodium falciparum, W2; read-out: EC50. Format: functional, organism-based.
Series [3] has as its system Plasmodium falciparum. Nature of the series: NOVARTIS: Inhibition of Plasmodium falciparum 3D7 (drug-susceptible) proliferation in erythrocyte-based infection assay. It counts as functional, organism-based. The note with it: Plasmodium falciparum, 3D7.

Consider `NC(=O)NN=C1c2cc(S(=O)(=O)NCc3ccco3)ccc2-c2ccc(S(=O)(=O)NCc3ccco3)cc21`, for which the CC50 in series [1] is greater than 10 µM. In addition, the figures for the EC50 in series [2] and in series [3] were greater than 1540 nM and 1180 nM, respectively.
On the same counts, the results for `Cc1nc(-c2ccccn2)nc(NCCc2ccccc2)c1Cl` are greater than 10 µM, 1510 nM and 1250 nM.
In series [1], `CN(C)c1ccc(N2C(N)=NC(N)=NC23CCCC3)cc1` had a CC50 greater than 10 µM. For the same molecule, the concentration giving a half-maximal response (EC50) was greater than 1570 nM in series [2] and 244 nM in series [3].
As for `O=C(Cc1ccccc1)Nc1ccc(C(=O)Nc2ccc(-c3nc4ccc(NC(=O)c5ccc(NC(=O)Cc6ccccc6)cc5)c(Cl)c4[nH]3)cc2)cc1`, the CC50 in series [1] came to 40 µM. The EC50 in series [2] was determined as 6020 nM; in series [3] it was 8000 nM.
The molecule `COc1ccc(-c2cc(-c3ccccc3)nc(SCC(=O)N3c4ccccc4Sc4ccc(Cl)cc43)c2C#N)cc1` registered a CC50 in series [1] greater than 10 µM. For the same molecule, the EC50 was greater than 1530 nM in series [2] and greater than 427 nM in series [3].
For `O=C(c1cccs1)N1CCN(c2ccccn2)CC1` the same measures were greater than 10 µM, greater than 1560 nM and 2020 nM.
For `O=c1c2sccc2nc(SCc2cccc([N+](=O)[O-])c2)n1C1CC1` the same measures were greater than 10 µM, greater than 1520 nM and 1250 nM.
On the same counts, the results for `O=C(Nc1ccc(-n2cccn2)cc1)C1CCN(C/C=C/c2ccccc2)CC1` are greater than 10 µM, 1540 nM and 464 nM.
`Cc1ccc(NC(=O)CN2CCN(c3ccccn3)CC2)cc1F` had a CC50 in series [1] greater than 10 µM. Also, the EC50 is greater than 1540 nM in series [2] and 2080 nM in series [3].
`Cc1ccccc1Nc1sc(C(=O)c2ccc([N+](=O)[O-])cc2)c(N)c1C(=O)Nc1ccccc1` yielded a CC50 in series [1] greater than 10 µM. For the same molecule, the EC50 in series [2] was greater than 1540 nM; in series [3] it was greater than 1200 nM.
For `O=C(CN(CCN1CCOCC1)S(=O)(=O)c1ccccn1)N1CCN(C(c2ccccc2)c2ccccc2)CC1` the same measures were greater than 28.8 µM, 4440 nM and greater than 12500 nM.
The molecule `COc1ccc2nc(C)cc(N(c3ccc(Br)cc3)S(=O)(=O)c3ccc([N+](=O)[O-])cc3)c2c1` registered a CC50 in series [1] of 6.83 µM. Besides, the EC50 in series [2] turned out to be 1050 nM; in series [3], 647 nM.
In series [1], `C=CCNC(=O)c1ccc2c(c1)N=C(CC(C)c1ccccc1)N(CC1CCCCC1)C2` (centres undefined) came in with a CC50 greater than 10 µM. Further, the EC50 is 1530 nM in series [2] and greater than 1250 nM in series [3].
For `COc1ccc(C2=C(c3ccc(OC)cc3)C3C(=O)C2C2C(=O)N(c4cccc5ccccc45)C(=O)C32)cc1` (centres undefined) the same measures were greater than 10 µM, greater than 1510 nM and greater than 1090 nM.
Turning to `CCCCCCCCCCCCOCCCNC(=O)c1cccc(N)c1`, in series [1], the CC50 is greater than 10 µM. The EC50 is greater than 1560 nM in series [2] and 1570 nM in series [3].
On the same counts, the results for `COc1ccc(C2C(C(=O)OC3CCCCC3)=C(C)Nc3nnnn32)cc1` (centres undefined) are greater than 74.1 µM, greater than 11200 nM and greater than 10000 nM.
For `CC(C)CNC(=O)c1cnc(NCCCN2CCCCC2C)nc1NCCc1ccccc1` (centres undefined) the same measures were greater than 10 µM, 1570 nM and 374 nM.
As to `Cc1ccc2nc3c(c(NCCCN(C)C)c2c1)CCC3`, the CC50 in series [1] is greater than 10 µM. The figures for the EC50 in series [2] and in series [3] were 1560 nM and 935 nM, respectively.
For the molecule `CC1CCCCN1CCCNc1ncc(C(=O)NCCc2ccccc2)c(NCC2CCCO2)n1` (centres undefined), the CC50 in series [1] is greater than 10 µM. Moreover, the EC50 in series [2] is greater than 1560 nM; in series [3], 914 nM.
`CN1[C@@H](C(=O)Nc2ccc3c(c2)OCO3)C[C@@H](c2ccc(F)cc2)NS1(=O)=O` came in with a CC50 in series [1] greater than 10 µM. The EC50 in series [2] is greater than 1570 nM; in series [3] it was 1960 nM.
For `CCOC(=O)NN=C1C=C2C=CC3C(CC[C@@]4(C)C3CC3CCCCC34C(C)=O)[C@@]2(C)CC1` (some centres undefined) the same measures were greater than 10 µM, greater than 1560 nM and greater than 902 nM.
On the same counts, the results for `NCCCNc1ncc(C(=O)NCc2ccccc2)c(NCC2CCCCC2)n1` are 5.14 µM, 799 nM and 91.2 nM.
In turn, `O=[N+]([O-])c1cccc2c(S(=O)(=O)NCCCN(CCO)CCO)cccc12` returned a CC50 in series [1] greater than 10 µM. The values for the EC50 in series [2] and in series [3] were greater than 1550 nM and greater than 1180 nM, respectively.
For `O=C(Nc1ccc(N2CCCCC2)cc1)N1CCc2nc[nH]c2C1`, the CC50 in series [1] was greater than 6.67 µM. Besides, the EC50 in series [2] was 1010 nM; in series [3], greater than 1250 nM.
In series [1], `N#CCSc1nc2ccccc2c2nc(CCc3c[nH]c4ccccc34)nn12` yielded a CC50 of 25.4 µM. Besides, the EC50 in series [2] is 3850 nM; in series [3], 3870 nM.
For the molecule `CCCN1CCC(N2C[C@@H](NCc3cc(C)ccc3C)C[C@H]2C(=O)NCCc2ccc3c(c2)OCO3)CC1`, the CC50 in series [1] was 4.2 µM. Moreover, the EC50 in series [2] is 661 nM; in series [3] it was 478 nM.
`CCC(c1nc2ccccc2c(=O)n1-c1ccc(F)cc1)N(CCc1ccccc1)C(=O)CCc1ccccc1` (centres undefined) had a CC50 in series [1] greater than 10 µM. Also, the EC50 was 1540 nM in series [2] and 1520 nM in series [3].
Consider `C=CCSC1=NC2(CC(c3ccccc3)c3cc(Cl)c(O)cc3O2)CC(C)(C)N1` (centres undefined), for which the CC50 in series [1] is greater than 10 µM. Also, the EC50 in series [2] was 1520 nM; in series [3], greater than 1190 nM.
Turning to `COc1c([N+](=O)[O-])cc2c(c1Br)OC1(C=C2)N(C)c2ccccc2C1(C)C` (centres undefined), the CC50 in series [1] was greater than 10 µM. Further, the EC50 in series [2] was greater than 1570 nM; in series [3], 1740 nM.
`CC(=O)Nc1cc([N+](=O)[O-])ccc1N1CCOCC1` registered a CC50 in series [1] greater than 10 µM. In addition, the values for the EC50 in series [2] and in series [3] were 1500 nM and greater than 1550 nM, respectively.
With `COC(=O)c1ccc(NC(=O)CSc2nc3cc4c(cc3cc2C#N)OCCO4)cc1`, the CC50 in series [1] is greater than 10 µM. The EC50 in series [2] was determined as 1540 nM; in series [3], 1610 nM.
As for `Cn1c(=O)c2c(nc3n(CCCO)c(C45CC6CC(CC(C6)C4)C5)cn23)n(C)c1=O`, the CC50 in series [1] was greater than 10 µM. The EC50 in series [2] was 1540 nM; in series [3], greater than 1250 nM.
`O=C1C=C(Nc2ccc(O)cc2)c2ccccc2C1=O` yielded a CC50 in series [1] of 5.12 µM. For the same molecule, the EC50 in series [2] stood at 785 nM; in series [3], 730 nM.
Consider `O=C1Nc2ccc(S(=O)(=O)Nc3ccc(NS(=O)(=O)c4ccc5c6c(cccc46)C(=O)N5)cc3)c3cccc1c23`, for which the CC50 in series [1] is greater than 8.12 µM. Also, the EC50 is greater than 1250 nM in series [2] and greater than 1180 nM in series [3].
For `COc1cc2c(O[C@@H]3O[C@H](CO)[C@@H](O)[C@H](O)[C@H]3O)c3c(c(-c4ccc5c(c4)OCO5)c2cc1OC)C(=O)OC3` the same measures were 0.784 µM, 120 nM and 74.3 nM.
On the same counts, the results for `CCN1CCN(c2cc(C)c3cc(NC(=O)/C=C/c4sccc4C)ccc3n2)CC1` are greater than 10 µM, greater than 1550 nM and 1590 nM.
In series [1], `CCOC(=O)CN(N=O)C1=C(N2CC2)C(=O)c2ccccc2C1=O` returned a CC50 of 25.4 µM. Further, the EC50 in series [2] came to 3850 nM; in series [3], 206 nM.
Take `Fc1ccc(Nc2nc(OC(C(F)(F)F)C(F)(F)F)nc(OC(C(F)(F)F)C(F)(F)F)n2)cc1`: the CC50 in series [1] is greater than 10 µM. The EC50 in series [2] was 1570 nM; in series [3], greater than 1340 nM.
